# Experimental data published in patent US20050075398A1, “Neuroprotectin D1 protects against cellular apoptosis, stroke damage, alzheimer's disease and retinal diseases” (priority 2003, published 2005).
# “Also recorded” adds a separate entry of the source.
# Tests used:
# Type in all cases: cell-based, human
# Bik gene expression = assay: HGU133 GeneChip DNA array in HN cells: Bik; settings: Aβ42 25 μM, DHA 50 nM or NPD1 50 nM, 18 h, nsc = no significant change
# Description: (§1) RNA Isolation and Spectral Quality. Brain tissues were rapidly processed, and total RNA was extracted using Trizol reagent (Invitrogen, Carlsbad, Calif.). Total RNA quality and abundance were profiled using RNA Nano LabChips (Caliper Technologies, Mountainview, Calif.; Agilent Technologies, Palo Alto, Calif.).
# (§2) Probe Synthesis and GeneChip Hybridization. Biotinylated antisense cRNAs were synthesized from cDNA using the Superscript Choice System (Invitrogen) and Enzo Biorray High Yield RNA Transcript Labeling kits according to the manufacturer's protocols (Affymetrix) and as described in Colangelo, V., Schurr, J., Ball, M. J., Pelaez, R. P., Bazan, N. G., Lukiw, W. J. (2002) J. Neurosci. Res., 70: 462-473; and Lukiw, W. J. (2004) Neurochem. Research, 29: 1287-1297. Probes were hybridized against HU133Av2 GeneChip DNA arrays that interrogate approximately 33,000 full-length […] genes and expressed sequence tag (EST) clusters. […]
# (§3) GeneChip Data and Statistical Analysis. […] Volcano plots were plotted representing total gene expression patterns as a function of fold-change as compared to expression patterns of age-matched controls as plotted against p, as calculated by an analysis of variance (ANOVA). […] Statistical significance was analyzed using a two-way factorial analysis of variance (p, ANOVA; Statistical Analysis System; SAS Institute, Cary, N.C. ).
# B94 gene expression = assay: HGU133 GeneChip DNA array in HN cells: B94; settings: Aβ42 25 μM, DHA 50 nM or NPD1 50 nM, 18 h, nsc = no significant change
# Description: as §1, §2, §3
# ARPE-19 cells = assay: Hoechst staining, TNFα/H2O2 oxidative stress-induced apoptosis
# Description: ARPE-19 cell culture and chemicals: ARPE-19 cells (L. M. Hjelmeland, ATCC # CRL-2302) were grown and maintained in DMEM-F12 medium supplemented with 10% FBS and incubated at 37° C. with a constant supply of 5% CO2. ARPE-19 cells are spontaneously transformed human retinal pigment epithelial cells that conserve cellular biological and functional properties. All chemicals were purchased from Sigma Chemical Co. (St. Louis, Mo.) unless otherwise indicated.
# Hoechst staining: ARPE-19 cells were loaded with 2 μM Hoechst dissolved in a Locke's solution (Promega, Madison, Wis.) and incubated one h at 37° C. before imaging. Cells were then washed once with PBS and viewed using a Nikon DIAPHOT 200 microscope under UV fluorescence. Images were recorded by a Hamamatsu Color Chilled 3CCD camera and Photoshop 5.0 software, as described in Mukherjee, P. K., DeCoster, M. A., Campbell, F. Z., Davis, R. J. & Bazan, N. G. (1999) J. Biol. Chem. 274:6493-6498.
# Several experimental conditions that result in reproducible oxidative-stress-induced apoptosis in ARPE-19 cells were tested. One condition chosen was the combination of TNFα with H2O2, both in relatively low concentrations. Typically 10 ng/ml of TNFα and 400-800 μM H2O2 led to marked increase in Hoechst-positive cells (Data not shown). Neither TNFα nor H2O2 alone triggered a significant effect under these conditions. (Data not shown).
# Serum starvation made ARPE-19 cells more sensitive to oxidative stress-triggered apoptosis induced by TNFα/H2O2. Cells were grown in culture for 72 h in the presence of BSA (3.35 μM) with or without DHA (6.7 μM). Endogenous NPD1 formation was enhanced by BSA-DHA (FIG. 12A).
# In the next experiment, confluent cells were starved for 8 h, then TNFα/H2O2 was added and incubated for 14 h before staining with Hoechst reagent. NPD1 (50 nM) was added at the time of adding TNFα/H2O2. […] When the TNFα concentration (10 ng/ml) was maintained and H2O2 concentration was decreased from 800 to 400 μM, fewer Hoechst-positive cells were seen. […] (Data not shown).
# Bcl-2 protein = assay: Western analysis of Bcl-2 in HN cells; settings: 50 nM, p<0.05
# Description: (§4) Western Analysis. Total protein was extracted, and 25 μg of protein was analyzed by Western blots using human Bcl-2, Bfl-1 (A1) and actin antibodies. […] Human specific anti-Bfl-1(A1)[Cat. No. sc-8351] was obtained from Santa Cruz Biotechnology (Santa Cruz, Calif.). For Western analysis, signal-intensity data were gathered by phosphorimaging onto molecular imaging screens (FUJIFILM) for 3-36 h using a Typhoon Molecular Imager system (Amersham Biosciences) as described in Bazan and Lukiw, 2002.
# (§5) To confirm the above changes in Bcl-2 and Bfl-1(A1), Western analysis was performed using anti-Bcl-2, anti-Bfl-1(A1), and anti-actin primary antibodies (B3170 Sigma Life Science, sc-8351 Santa Cruz, and A2103 Sigma, respectively). The results of the Western analysis confirm up-regulation of Bcl-2 and Bfl-1(A1) anti-apoptotic proteins over actin controls in DHA- and NPD1-treated cells.
# Bcl-xL gene expression = assay: HGU133 GeneChip DNA array in HN cells: Bcl-xL; settings: Aβ42 25 μM, DHA 50 nM or NPD1 50 nM, 18 h, nsc = no significant change
# Bfl-1(A1) protein = assay: Western analysis of Bfl-1(A1) in HN cells; settings: 50 nM, p<0.05
# Description: as §4, §5
smiles,measurement,setting,value
"CC/C=C\C[C@H](O)\C=C/C=C/C=C/[C@H](O)C/C=C\C/C=C\CCC(=O)O [NPD1, 10,17S-docosatriene]","Bik gene expression, fold change over untreated controls",Bik gene expression,nsc
same,"B94 gene expression, fold change over untreated controls",B94 gene expression,nsc
same,inhibition of oxidative stress (TNFα/H2O2)-induced Hoechst-positive cells / apoptosis,"ARPE-19 cells; 50 nM added with TNFα 10 ng/ml plus H2O2 (400-800 μM), 14 h",inhibition; also recorded: inhibited apoptosis
same,inhibition of oxidative stress caused by the lower H2O2 concentration,"ARPE-19 cells; 50 nM, TNFα 10 ng/ml plus H2O2 400 μM",almost completely inhibited
same,"Bcl-2 protein increase over controls, normalized with actin",Bcl-2 protein,2.3 fold
same,"Bcl-xL gene expression, fold change over untreated controls",Bcl-xL gene expression,+2.4 fold
same,"Bfl-1(A1) protein increase over controls, normalized with actin",Bfl-1(A1) protein,5.4 fold
